pIC50: −log10 of the molar value.

The target of this experiment is T1, APOL1 G1 Protein (Homo sapiens, UniProt O14791, I384M/S342G).
T1 sequence (O14791 28-398 S342G/I384M): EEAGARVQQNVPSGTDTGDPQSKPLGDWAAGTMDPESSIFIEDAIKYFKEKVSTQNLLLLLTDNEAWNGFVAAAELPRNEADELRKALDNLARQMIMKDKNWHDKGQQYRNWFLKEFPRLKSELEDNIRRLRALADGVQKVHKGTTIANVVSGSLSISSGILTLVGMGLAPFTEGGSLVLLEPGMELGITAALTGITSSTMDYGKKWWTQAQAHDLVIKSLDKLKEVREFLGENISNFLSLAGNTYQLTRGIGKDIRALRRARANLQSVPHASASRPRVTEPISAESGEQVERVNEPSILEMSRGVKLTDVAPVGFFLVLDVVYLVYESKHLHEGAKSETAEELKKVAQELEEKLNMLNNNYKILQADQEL
The experiment can be described thus: Trypanosoma brucei brucei lysis assay using APOL1 recombinant protein (AlamarBlue viability). In kind it is cell-based. Particulars: Trypanosoma brucei brucei lysis, recombinant APOL1, AlamarBlue; read-out: Trypanosoma Assay (IC50). The text has this: Trypanosoma brucei brucei is a blood stream parasite to which human, gorillas and baboon are immune due to the presence of the APOL1 protein in their HDL particles. The protein is uptaken by the parasite via the TbHpHb receptor located in its flagellar pocket and is bonded by the Hpr protein contained in the HDL particles which triggers the receptor endocytosis by the parasite.
Following endocytosis, the formed vesicle containing the HDL particle matures from early to late endosome, and subsequently to lysosome. The concomitant pH change in the lumen of the vesicle triggers the insertion of the APOL1 protein into the membrane of the late endosome/lysosome and hereby triggers lysosomal membrane premeabilisation and as a further downstream event, trypanosome lysis. Trypanosoma brucei brucei is sensitive to lysis by all three APOL1 variants (G0, G1, and G2).
The Trypanosoma brucei brucei lysis assay is a lysis assay of the parasite using recombinant APOL1 protein variant followed by a fluorescent detection method of viability by the addition of AlamarBlue reagent to the assay well, a general metabolic redox indicator (AlamarBlue assay).
Briefly, the AlamarBlue active compound, the resazurin, a blue, water soluble, non-toxic and cell permeable molecule, which can be followed by absorbance, is reduced by various metabolic pathways into resorufin, a red compound which can be followed by either absorbance or fluorescence. The assay allows the calculation of the percent viability (percent of living Trypanosomes remaining in each well) at the end of a lysis relative to the untreated condition by interpolation of fluorescent values (FLU) on a standard curve with a known amount of seeded trypanosome/well.
Trypanosoma brucei brucei (ATCC, Cat. No. PRA-382) • Lister 427 VSG 221 bloodstream form.
Thaw/Expansion Media (ATCC Medium 2834 Modified HMI-9 Medium)
Assay Media (No Phenol Red/No FBS): Make on Day of Use
Hypoxanthine Stock (100×)-9 (10×)
Equipment • El-Clip Tip pipette 12 channel adjustable 2-125 μL, Cat. No. 4672070BT • ThermoFisher MultiDrop 384, Cat. No. 5840300 • Multidrop • Agilent Bravo, Cat. No. G5409A • Bravo • SpectraMax M5
Assay Ready Plates (ARPs) • ARPs comes in two formats: • […] final top concentration with a 2.5 fold dilution down. • […] final top concentration with a 3 fold dilution down. • Both have a 10 point Dose response. • 0.1% DMSO final in the Black Assay Plate. • Compounds are diluted 1000 fold in the Black Assay Plate. • Each plate is designed for 14 compounds in duplicate. • In the final Black Assay Plate:
Trypanosoma brucei brucei Culture
Step 2, Day 4 • Centrifuge at 800×g for 5 minutes at room temperature. • Resuspend in 1 mL media. • Make a 1:25 fold dilution (10 μL/240 μL media). • Count on a hemocytometer (after adding parasites). • Let sit for 1-2 minutes for the parasites to settle. • Count should be approximately 100 viable motile parasites/16 grid or approximately 25×10^6 parasites/flask. • Passage the parasites by adding 1×10^6 parasites/T75 flask in 20 mL media. • Passage the parasites by adding 2.33×10^6 parasites/T175 flask in 46.6 mL media. • For every T75 flask should make enough for approximately 1.5×384 well assay plates. • For every T175 flask should make enough for approximately 3.8×384 well assay plates.
Step 3, Day 6 • Centrifuge at 800×g for 5 minutes. • Resuspend in 3 mL assay media (No phenol red, no FBS) per 75 starting flask. • Resuspend in 7 mL assay media (No phenol red, no FBS) per 175 flask • Make a 1:25 fold dilution. • Count by hemocytometer. • Every T75 flask set up should have approximately 75×10^6 parasites/flask (verify doubling time=8.7 hrs±1 hr). • Every T175 flask set up should have approximately 175×10^6 parasites/flask (verify doubling time=8.7 hrs±1 hr). • Require 46×10^6 parasites per 384 well plate (at 120,000 parasites per well). Protocol B […]
In general terms: Alamar Blue is a resazurin reagent that responds to reducing activity.

One may read the pIC50 as the negative decadic logarithm of the IC50, by convention in mol/L. Consider `O=C([C@H]1C[C@H](c2c(-c3ccc(F)cc3)[nH]c3c(F)cc(F)cc32)C1)N1CCC[C@@H](O)C1` [Compound 149], for which the pIC50 is over 6.60.

Turning to `CN(CC(O)CO)C(=O)[C@H]1C[C@H](c2c(-c3ccc(F)cc3)[nH]c3c(F)cc(F)cc32)C1` (some centres unmarked) [Compound 158], the pIC50 was 6.00 to 6.60.

With `CN(C)C[C@@H]1CCN(C(=O)[C@H]2C[C@H](c3c(-c4ccc(F)cc4)[nH]c4c(F)cc(F)cc43)C2)C[C@H]1O` [Compound 110], the pIC50 was 6.00 to 6.60.

As to `CCC(O)(CCCO)CNC(=O)[C@H]1C[C@H](c2c(-c3ccc(F)cc3)[nH]c3c(F)cc(F)cc32)C1` (some centres unmarked) [Compound 119], the pIC50 is under 6.00.

Consider `O=C(NC1(CO)CCC1)[C@H]1C[C@H](c2c(-c3ccc(F)cc3)[nH]c3c(F)cc(F)cc32)C1` [Compound 6], for which the negative logarithm of the IC50 (pIC50) is over 6.60.

With `CN1CCC(NC(=O)[C@H]2C[C@H](c3c(-c4ccc(F)cc4)[nH]c4c(F)cc(F)cc43)C2)C1=O` (some centres unmarked) [Compound 7], the pIC50 is 6.00 to 6.60.

Consider `O=C([C@H]1C[C@H](c2c(-c3ccc(F)cc3)[nH]c3c(F)cc(F)cc32)C1)N1CCN(CCO)CC1` [Compound 126], for which the pIC50 was under 6.00.

As to `O=C([C@H]1C[C@H](c2c(-c3ccc(F)cc3)[nH]c3c(F)cc(F)cc32)C1)N1CCCC(CCO)C1` (some centres unmarked) [Compound 128], the pIC50 was under 6.00.

Consider `O=C([C@H]1C[C@H](c2c(-c3ccc(F)cc3)[nH]c3c(F)cc(F)cc32)C1)N1C2CCC(C2)C1CO` (some centres unmarked) [Compound 97], for which the negative logarithm of the IC50 (pIC50) was under 6.00.

Turning to `O=C([C@H]1C[C@H](c2c(-c3ccc(F)cc3)[nH]c3c(F)cc(F)cc32)C1)N1CCOCC1CCO` (some centres unmarked) [Compound 113], the negative logarithm of the IC50 (pIC50) is under 6.00.

On to `O=C([C@H]1C[C@H](c2c(-c3ccc(F)cc3)[nH]c3c(F)cc(F)cc32)C1)N1CC(O)C(CO)C1` (some centres unmarked) [Compound 138], for which the negative logarithm of the IC50 (pIC50) is 6.00 to 6.60.

In the case of `NC(=O)[C@H]1CCN(C(=O)[C@H]2C[C@H](c3c(-c4ccc(F)cc4)[nH]c4c(F)cc(F)cc43)C2)C1` [Compound 154], the pIC50 is under 6.00.

Regarding `CC(C)N(CCO)C(=O)[C@H]1C[C@H](c2c(-c3ccc(F)cc3)[nH]c3c(F)cc(F)cc32)C1` [Compound 123], the pIC50 is 6.00 to 6.60.

Regarding `O=C1C[C@@H](NC(=O)[C@H]2C[C@H](c3c(-c4ccc(F)cc4)[nH]c4c(F)cc(F)cc43)C2)C(=O)N1` [Compound 166], the negative-log IC50 (pIC50) was over 6.60.

In the case of `O=C(NCCCO)[C@H]1C[C@H](c2c(-c3ccc(F)cc3)[nH]c3c(F)cc(F)cc32)C1` [Compound 104], the pIC50 is over 6.60.

On to `CC1(C)CN(C(=O)[C@H]2C[C@H](c3c(-c4ccc(F)cc4)[nH]c4c(F)cc(F)cc43)C2)CC1O` (some centres unmarked) [Compound 102], for which the pIC50 is under 6.00.

On to `O=C([C@H]1C[C@H](c2c(-c3ccc(F)cc3)[nH]c3c(F)cc(F)cc32)C1)N1CCC2(COC2)C1` [Compound 103], for which the negative-log IC50 (pIC50) is under 6.00.

Regarding `O=C([C@H]1C[C@H](c2c(-c3ccc(F)cc3)[nH]c3c(F)cc(F)cc32)C1)N1CCCC[C@@H]1CCO` [Compound 156], the pIC50 is under 6.00.

`CC1(C)CN(C(=O)[C@H]2C[C@H](c3c(-c4ccc(F)cc4)[nH]c4c(F)cc(F)cc43)C2)CCN1C(=O)[C@H]1C[C@@](C)(O)C1` [Compound 130]: the negative logarithm of the IC50 (pIC50) was under 6.00.

`O=C(NCc1cocn1)[C@H]1C[C@H](c2c(-c3ccc(F)cc3)[nH]c3c(F)cc(F)cc32)C1` [Compound 168]: the pIC50 was over 6.60.

Turning to `CNC(=O)C(C)NC(=O)[C@H]1C[C@H](c2c(-c3ccc(F)cc3)[nH]c3c(F)cc(F)cc32)C1` (mixture of isomers) [Compound 9], the negative-log IC50 (pIC50) was 6.00 to 6.60.

As to `CC(O)CNC(=O)[C@H]1C[C@H](c2c(-c3ccc(F)cc3)[nH]c3c(F)cc(F)cc32)C1` (some centres unmarked) [Compound 167], the negative logarithm of the IC50 (pIC50) was 6.00 to 6.60.

Consider `O=C([C@H]1C[C@H](c2c(-c3ccc(F)cc3)[nH]c3c(F)cc(F)cc32)C1)N1CCC[C@@H](CO)C1` [Compound 109], for which the negative logarithm of the IC50 (pIC50) was under 6.00.

Regarding `CC1(C)CN(C(=O)[C@H]2C[C@H](c3c(-c4ccc(F)cc4)[nH]c4c(F)cc(F)cc43)C2)CCC1O` (some centres unmarked) [Compound 114], the pIC50 was under 6.00.

On to `O=C1CCC(NC(=O)[C@H]2C[C@H](c3c(-c4ccc(F)cc4)[nH]c4c(F)cc(F)cc43)C2)C1` (some centres unmarked) [Compound 159], for which the negative-log IC50 (pIC50) is under 6.00.

Regarding `O=C1C[C@H](NC(=O)[C@H]2C[C@H](c3c(-c4ccc(F)cc4)[nH]c4c(F)cc(F)cc43)C2)C(=O)N1` [Compound 165], the pIC50 is over 6.60.

On to `O=C(N[C@H](CO)C(F)(F)F)[C@H]1C[C@H](c2c(-c3ccc(F)cc3)[nH]c3c(F)cc(F)cc32)C1` [Compound 164], for which the negative logarithm of the IC50 (pIC50) is over 6.60.

As for `O=C([C@H]1C[C@H](c2c(-c3ccc(F)cc3)[nH]c3c(F)cc(F)cc32)C1)N1C[C@H]2C[C@@]2(CO)C1` [Compound 98], the negative-log IC50 (pIC50) was under 6.00.

For `O=C1CC[C@@H](NC(=O)[C@H]2C[C@H](c3c(-c4ccc(F)cc4)[nH]c4c(F)cc(F)cc43)C2)C1` [Compound 157], the pIC50 is under 6.00.

Take `O=C([C@H]1C[C@H](c2c(-c3ccc(F)cc3)[nH]c3c(F)cc(F)cc32)C1)N1CCC[C@H](O)C1` [Compound 105]: the negative-log IC50 (pIC50) was 6.00 to 6.60.

In the case of `O=C([C@H]1C[C@H](c2c(-c3ccc(F)cc3)[nH]c3c(F)cc(F)cc32)C1)N(CCOCCO)C1CCC1` [Compound 121], the pIC50 is under 6.00.

Take `O=C([C@H]1C[C@H](c2c(-c3ccc(F)cc3)[nH]c3c(F)cc(F)cc32)C1)N1CCCC[C@H]1CO` [Compound 146]: the negative-log IC50 (pIC50) is 6.00 to 6.60.

For the molecule `CC(C)[C@@H](CO)NC(=O)[C@H]1C[C@H](c2c(-c3ccc(F)cc3)[nH]c3c(F)cc(F)cc32)C1` [Compound 141], the pIC50 is 6.00 to 6.60.

Regarding `O=C([C@H]1C[C@H](c2c(-c3ccc(F)cc3)[nH]c3c(F)cc(F)cc32)C1)N(CCO)c1cnccn1` [Compound 132], the pIC50 was under 6.00.

On to `CCC1(O)CN(C(=O)[C@H]2C[C@H](c3c(-c4ccc(F)cc4)[nH]c4c(F)cc(F)cc43)C2)C1` [Compound 112], for which the pIC50 was under 6.00.

In the case of `O=C([C@H]1C[C@H](c2c(-c3ccc(F)cc3)[nH]c3c(F)cc(F)cc32)C1)N1CCCC[C@@H]1CO` [Compound 107], the pIC50 was 6.00 to 6.60.

As to `O=C([C@H]1C[C@H](c2c(-c3ccc(F)cc3)[nH]c3c(F)cc(F)cc32)C1)N1CC(OCC2CCCO2)C1` (some centres unmarked) [Compound 136], the negative logarithm of the IC50 (pIC50) was under 6.00.

`O=C(NC(CO)CO)[C@H]1C[C@H](c2c(-c3ccc(F)cc3)[nH]c3c(F)cc(F)cc32)C1` [Compound 8]: the negative-log IC50 (pIC50) was over 6.60.

For the molecule `O=C(N[C@@H](CO)C(F)(F)F)[C@H]1C[C@H](c2c(-c3ccc(F)cc3)[nH]c3c(F)cc(F)cc32)C1` [Compound 163], the negative-log IC50 (pIC50) is over 6.60.

Regarding `NC(=O)[C@H]1C[C@H](c2c(-c3ccc(F)cc3)[nH]c3c(F)cc(F)cc32)C1` [Compound 169], the pIC50 was over 6.60.

`O=C(NCCOCCO)[C@H]1C[C@H](c2c(-c3ccc(F)cc3)[nH]c3c(F)cc(F)cc32)C1` [Compound 125]: the pIC50 is over 6.60.
